Experimental data published in ChEMBL document CHEMBL4184093, “Effects of newly synthetized isoquinoline derivatives on rat uterine contractility and ROCK II activity” (Bioorg Med Chem Lett, 2018).
Activity calls are given as the source filed them. No cut-off for these calls is given here.

What was measured:
Uterus [1] = experiment: Inhibition of oxytocin-induced uterus contraction in non-pregnant Sprague-Dawley rat measured for 300 secs; format: functional, tissue-based
[2] = biological target: Rho-associated protein kinase 2 (Homo sapiens) (UniProt O75116); experiment: Inhibition of ROCK2 (unknown origin) at 200 uM using MYPT1 as substrate after 30 mins by immunoassay
Rho-associated protein kinase 2 (Homo sapiens), sequence (O75116 whole entry, looked up): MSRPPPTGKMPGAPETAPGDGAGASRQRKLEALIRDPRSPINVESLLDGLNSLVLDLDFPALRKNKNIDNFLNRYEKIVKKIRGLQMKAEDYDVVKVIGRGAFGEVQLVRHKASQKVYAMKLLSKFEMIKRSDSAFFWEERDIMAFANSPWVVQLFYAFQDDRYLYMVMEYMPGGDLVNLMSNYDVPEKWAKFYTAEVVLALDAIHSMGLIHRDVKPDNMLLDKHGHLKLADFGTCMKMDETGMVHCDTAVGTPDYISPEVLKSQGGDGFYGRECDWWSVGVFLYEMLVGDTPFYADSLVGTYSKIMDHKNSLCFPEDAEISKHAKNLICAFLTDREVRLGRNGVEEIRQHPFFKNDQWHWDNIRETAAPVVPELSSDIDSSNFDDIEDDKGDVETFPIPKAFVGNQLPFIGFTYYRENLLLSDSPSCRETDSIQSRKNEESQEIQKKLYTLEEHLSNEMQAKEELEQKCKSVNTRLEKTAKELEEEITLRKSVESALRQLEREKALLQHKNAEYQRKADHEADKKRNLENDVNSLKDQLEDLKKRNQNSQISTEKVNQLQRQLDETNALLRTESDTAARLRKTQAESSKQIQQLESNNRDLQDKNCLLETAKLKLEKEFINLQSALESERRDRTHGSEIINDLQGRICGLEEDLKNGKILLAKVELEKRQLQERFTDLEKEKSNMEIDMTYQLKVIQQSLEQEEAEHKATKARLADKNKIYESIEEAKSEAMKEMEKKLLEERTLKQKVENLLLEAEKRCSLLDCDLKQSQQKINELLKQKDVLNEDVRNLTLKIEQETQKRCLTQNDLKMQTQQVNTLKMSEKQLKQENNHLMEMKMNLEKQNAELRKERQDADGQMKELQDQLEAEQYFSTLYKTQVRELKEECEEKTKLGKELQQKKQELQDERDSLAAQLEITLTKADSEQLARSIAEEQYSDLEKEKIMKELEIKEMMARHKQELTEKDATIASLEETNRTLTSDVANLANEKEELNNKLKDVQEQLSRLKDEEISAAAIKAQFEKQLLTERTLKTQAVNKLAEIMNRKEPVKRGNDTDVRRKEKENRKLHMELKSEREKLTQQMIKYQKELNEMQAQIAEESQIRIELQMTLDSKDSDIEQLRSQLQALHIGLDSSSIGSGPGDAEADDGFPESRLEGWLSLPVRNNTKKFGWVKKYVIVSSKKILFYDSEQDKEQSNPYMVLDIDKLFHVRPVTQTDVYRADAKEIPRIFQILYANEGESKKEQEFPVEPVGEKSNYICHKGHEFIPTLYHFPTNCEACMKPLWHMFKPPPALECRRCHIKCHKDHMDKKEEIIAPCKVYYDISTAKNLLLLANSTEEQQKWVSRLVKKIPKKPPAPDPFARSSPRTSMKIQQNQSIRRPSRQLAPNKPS

Uterus [3] = experiment: Inhibition of oxytocin-induced uterus contraction in Sprague-Dawley rat during parturition period at 10^-10 to 10^-5 M measured for 300 secs; format: functional, tissue-based
Uterus [4] = experiment: Inhibition of oxytocin-induced uterus contraction in 20 days pregnant Sprague-Dawley rat at 10^-10 to 10^-5 M measured for 300 secs; format: functional, tissue-based

SMILES	IC50 (Uterus [1])	ROCK2 inhibition activity call (active/not active) [2]	Emax (Uterus [1])	inhibition (Uterus [3])	inhibition (Uterus [4])
CCOc1cc2c(cc1OCC)C1C(CO)CS/C(=N\c3ccc(C)cc3)N1CC2 (stereo not drawn)	1.17 µM	–	82.5%	–	–
COc1ccc(CCNC2CCCCC2O)cc1OC (stereo not drawn)	0.0981 µM	inactive	51.7%	–	–
COc1cc2c(cc1OC)C(C)N(C1CCCCC1O)CC2 (stereo not drawn)	0.0902 µM	inactive	45.6%	–	–
COc1ccc(CC[N+](C)(CCO)C2CCCCC2)cc1OC (stereo not drawn)	0.0189 µM	inactive	49.6%	–	–
COc1ccc(CCNC(=O)C(C)(C)C)cc1OC	0.191 µM	–	52.8%	–	–
COc1cc2c(cc1OC)C1(C)N(CC2)C(c2ccccc2)=NN1c1ccc(Cl)cc1 (stereo not drawn)	0.258 µM	–	53.2%	–	–
COc1cc2c(cc1OC)C1C(C)CN1CC2 (stereo not drawn)	0.00824 µM	inactive	43.7%	–	–
CCOc1ccc(CCN(CCO)C2CCCCC2O)cc1OCC (stereo not drawn)	0.0418 µM	Active	46.3%	Active	Active
CCOc1cc2c(cc1OCC)CN(C1CCCCC1O)CC2 (stereo not drawn)	0.0371 µM	inactive	48%	–	–
C#CC[N+]12CCc3cc(OC)c(OC)cc3C1C(CO)C2 (stereo not drawn)	0.0322 µM	inactive	54.5%	–	–
CCOc1cc2c(cc1OCC)C(CCO)N(C(=S)Nc1cccc(C(F)(F)F)c1)CC2 (stereo not drawn)	1.08 µM	–	84.7%	–	–
CCOc1ccc(/C=C2\NCCc3cc(OCC)c(OCC)cc32)cc1OCC [DROTAVERINE]	1.94 µM	–	88.8%	–	–
COc1cc2c(cc1OC)C(C1CCc3nc(N4CCOCC4)[nH]c(=O)c3C1)=NCC2 (stereo not drawn)	0.0242 µM	inactive	47.3%	–	–
COc1ccc(Cc2nccc3cc(OC)c(OC)cc23)cc1OC [PAPAVERINE]	0.42 µM	–	98.5%	–	–
C[C@@H](N)[C@H]1CC[C@H](C(=O)Nc2ccncc2)CC1 [Y-27632]	0.505 µM	–	82.3%	–	–
COc1cc2c(cc1OC)C1C(CO)COC(=N)N1CC2 (stereo not drawn)	0.0133 µM	inactive	50.4%	–	–
O=S(=O)(c1cccc2cnccc12)N1CCCNCC1 [FASUDIL]	0.781 µM	–	87.4%	Active	Active

Second part, led by results:

IC50 (Uterus [1])	ROCK2 inhibition activity call (active/not active) [2]	SMILES	Emax (Uterus [1])	inhibition (Uterus [3])	inhibition (Uterus [4])
0.788 µM	–	COc1cc2c(cc1OC)C1C(Cc3ccccc3)CN1CC2 (stereo not drawn)	57.2%	–	–
0.158 µM	Active	COc1cc2c(cc1OC)C(C(CO)CO)N(C(=S)Nc1ccccc1)CC2 (stereo not drawn)	52.5%	Active	Active
0.61 µM	–	COc1cc2c(cc1OC)C(c1ccccc1)N(C1CCCC1O)CC2 (stereo not drawn)	58.8%	–	–
0.263 µM	–	COc1cc2c(cc1OC)C(C(CO)CO)N(C(=O)c1ccc(C(F)(F)F)cc1)CC2 (stereo not drawn)	66.4%	–	–
1.19 µM	–	COc1cc2c(cc1OC)C(C(CO)COC(=O)c1ccccc1)N(C(=S)Nc1ccccc1)CC2 (stereo not drawn)	83.5%	–	–
0.522 µM	–	COc1cc2c(cc1OC)C1CCO/C(=N\Cc3ccccc3)N1CC2 (stereo not drawn)	55.1%	–	–
0.0845 µM	inactive	COc1cc2c(cc1OC)C(C(CO)CO)N(C1CCCC1)CC2 (stereo not drawn)	54.5%	–	–
0.495 µM	–	COc1cc2c(cc1OC)C1C(COC(=O)Nc3ccccc3)CN1CC2 (stereo not drawn)	54.5%	–	–
1.25 µM	–	COc1cc2c(cc1OC)C(CC#N)N(C(=O)Nc1cccc(C(F)(F)F)c1)CC2 (stereo not drawn)	72.2%	–	–
0.278 µM	–	COc1cc2c(cc1OC)C(C(CO)COC(=O)c1ccccc1)N(CCC#N)CC2 (stereo not drawn)	53.3%	–	–
0.723 µM	–	COc1cc2c(cc1OC)C(C(CO)Cc1ccccc1)NCC2 (stereo not drawn)	76.6%	–	–
